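Dose response: 5 concentrations. Exposure: 48 h. Format: 96-well plates. Endpoint: linear interpolation; highest concentration if not reached. GI50 marks 50% less growth. The concentration for full growth arrest is given as TGI.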 Where a SMILES comes first, the peptide text is derived from it. [ ]: non-standard residue; d: D form. The star is where a group is joined. Bn2Val = CC(C)[C@@H](C(=O)*)N(Cc1ccccc1)Cc1ccccc1; NH(4-Cl-benzyl) = Clc1ccc(CN*)cc1; NMeV = CN[C@H](C(=O)O)C(C)C; dNMeA = CN[C@H](C)C(=O)O
Columns and labels:
Experiment in all cases: inhibition of tumour cell growth, NCI panel, 48 h
A498 renal = tested on: A498 renal
ACHN renal = tested on: ACHN renal
HL-60(TB) leukemia = tested on: HL-60(TB) leukemia
HS 578T breast = tested on: HS 578T breast
NCI-H522 lung = tested on: NCI-H522 lung
OVCAR-5 ovarian = tested on: OVCAR-5 ovarian
OVCAR-8 ovarian = tested on: OVCAR-8 ovarian
SF-268 CNS = tested on: SF-268 CNS
COLO 205 colon = tested on: COLO 205 colon
SK-OV-3 ovarian = tested on: SK-OV-3 ovarian

| SMILES | GI50 (A498 renal) [µM] | TGI (A498 renal) [µM] | TGI (ACHN renal) [µM] | GI50 (HL-60(TB) leukemia) [µM] | TGI (HL-60(TB) leukemia) [µM] | TGI (HS 578T breast) [µM] | TGI (NCI-H522 lung) [µM] | GI50 (OVCAR-5 ovarian) [µM] | TGI (OVCAR-5 ovarian) [µM] | TGI (OVCAR-8 ovarian) [µM] | TGI (SF-268 CNS) [µM] | TGI (COLO 205 colon) [µM] | TGI (SK-OV-3 ovarian) [µM] | GI50 (ACHN renal) [µM] | GI50 (HS 578T breast) [µM] | GI50 (SK-OV-3 ovarian) [µM] |
| --- | --- | --- | --- | --- | --- | --- | --- | --- | --- | --- | --- | --- | --- | --- | --- | --- |
| Cc1cc2c([nH]c3ccccc32)c(O)c1-c1c(C)cc2c([nH]c3ccccc32)c1O | 15.9 | 29.4 | 27.3 | 32.9 | 55 | 32.7 | 31.5 | 15 | 29 | 30.4 | 27.4 |  |  |  |  |  |
| CCCCCCCCCCCCCCCCCCNc1nc(=O)n(C2CC(O)C(COP(=O)(O)O)O2)cc1F (stereo unspecified) |  | > 100 | > 100 |  |  | > 100 | > 100 |  | > 100 | > 100 | > 100 | > 100 | > 100 |  |  |  |
| Cn1c(=O)oc2nc(-c3ccccc3)cc(C(F)(F)F)c21 |  | 55.7 | > 100 |  |  |  | > 100 |  | > 100 | > 100 | > 100 | > 100 | > 100 |  |  |  |
| CC(C)(C)OC(=O)NCC(CNC(=O)OC(C)(C)C)c1nc(C(N)=O)cs1 |  | > 100 | > 100 |  | > 100 | > 100 |  |  | > 100 | > 100 |  | > 100 | > 100 |  |  |  |
| COc1cccc(N[C@@H]2c3cc4c(cc3C(c3cc(OC)c(O)c(OC)c3)[C@H]3C(=O)OCC32)OCO4)c1 (stereo partly specified) |  | 2.1 |  |  | 0.487 |  | 8.02 |  | > 74.2 | > 23.1 | 12.8 | 7.39 | 17.9 |  |  |  |
| Cc1nn(-c2ccccc2)c(C)c1/C=N/N=C1\S/C(=C\c2ccc(Cl)cc2)C(=O)N1c1ccccc1 |  | > 100 | > 100 |  | 24.4 | 60.9 |  |  | > 100 | > 100 | > 100 | > 100 | > 100 |  |  |  |
| CC(C)C(C/C=C1\CC(CO)(COC(=O)C2CCCCC2)OC1=O)C(C)C (stereo unspecified) |  | > 100 | 32.3 |  |  | 31.8 | 31.8 |  | 41.8 | 35.8 | 33.5 | 23.6 | > 100 |  |  |  |
| Cc1cc(OC(=O)NCn2cc(-c3ccccc3)nn2)ccc1Cl |  |  | > 100 |  | > 100 |  | > 100 |  | > 100 | > 100 | > 100 | > 100 |  |  |  |  |
| NCc1cccc(O)c1O |  | > 100 | > 100 |  | > 100 |  | > 100 |  | > 100 | > 100 | > 100 | > 100 | > 100 |  |  |  |
| COc1ccc(C(SC2C(O)C(CO)OC2n2ccc(=O)[nH]c2=O)(c2ccccc2)c2ccc(OC)cc2)cc1 (stereo unspecified) |  |  | 81.5 |  | 68.4 | 53.6 | 31.9 |  | 39.7 | 45.5 | 40.1 | 34.9 | 84.7 |  |  |  |
| O=C1CC(=O)n2cnc3cccc(c32)N1 |  | > 100 |  |  | > 100 | > 100 |  |  | > 100 | > 100 | > 100 | > 100 | > 100 |  |  |  |
| CCN=C1C=CC(=C(c2ccc(N(CC)CC)cc2)c2ccc(N(CC)CC)cc2)c2ccccc21 | 0.0692 | 0.444 | 1.07 |  |  | 0.533 |  | 0.294 | 1.23 |  |  |  | 0.601 | 0.194 | 0.0408 | 0.0823 |
| CC(C)(C)n1c(=O)[nH]c(=O)n1C(C)(C)C |  | > 100 | > 100 |  | > 100 | > 100 |  |  | > 100 | > 100 |  | > 100 | > 100 |  |  |  |
| CC(C)[C@H](NC(=O)[C@H](C(C)C)N(Cc1ccccc1)Cc1ccccc1)C(=O)N(C)[C@H](C(=O)N1CCC[C@H]1C(=O)N(C)[C@H](C)C(=O)NCc1ccc(Cl)cc1)C(C)C (Bn2Val-V[NMeV]P[dNMeA]-{NH(4-Cl-benzyl)}) |  |  | 10.1 |  | 3.97 | 4.04 | 4.97 |  | > 100 | > 100 | 11.2 |  | > 100 |  |  |  |
| Nc1nc(Cl)cc(NC23CC4CC(CC(C4)C2)C3)n1 |  | > 100 | > 100 |  |  |  | > 100 |  | > 100 | > 100 | > 100 | > 100 | > 100 |  |  |  |
| Cc1cc(C)c2c(c1)C(=O)/C(=C/c1ccccc1C(=O)O)C2 |  | > 100 | > 100 |  | > 100 | > 100 | > 100 |  |  | > 100 | > 100 |  |  |  |  |  |
| CC1(C)CC2(CC(C)(C)N1O)NC(=O)OC2=O |  | > 100 |  |  | > 100 |  | > 100 |  | > 100 | > 100 | > 100 | > 100 | > 100 |  |  |  |
| c1ccc(/C(=N/Nc2ccncn2)c2ccccn2)cc1 |  |  | 88.1 |  |  | 29.9 | 4.14 |  | > 100 | 50.2 | 50.9 |  | 75.7 |  |  |  |
| Cc1ccc(S(=O)CC(CF)OCn2cc(C)c(=O)[nH]c2=O)cc1 (stereo unspecified) |  |  | > 100 |  | > 100 | > 100 | > 100 |  | > 100 | > 100 | > 100 | > 100 | > 100 |  |  |  |
| CN(C)/N=N/c1nc2c(c(=O)n(C)c(=O)n2C)n1CC(O)CO (stereo unspecified) |  |  | > 100 |  | > 100 | > 100 | > 100 |  | > 100 | > 100 | > 100 | > 100 | > 100 |  |  |  |
| O=C(N/N=C/C=C/c1ccccc1)c1ccccc1Nc1ccccc1C(=O)N/N=C/C=C/c1ccccc1 |  | > 100 | > 100 |  | > 100 | > 100 |  |  | > 100 | > 100 | > 100 | > 100 | > 100 |  |  |  |
| COc1cc(C2C3=C(COC3=O)Oc3cc4c(cc32)OCO4)cc(OC)c1O (stereo unspecified) |  | 6.75 | 22.9 |  | 0.294 |  | < 0.088 |  | 39.4 | 1.05 | 26.8 | 0.0776 | 1.48 |  |  |  |
| O=C(Cc1ccc(Cl)c(Cl)c1)NCC1(N2CCCCC2)CCCCC1 |  | > 100 | > 100 |  | > 100 | > 100 | > 100 |  | > 100 | > 100 | > 100 |  | > 100 |  |  |  |

Source: PubChem BioAssay (NCI)
